A compilation of properties of binary mixtures (doi:10.1016/j.molliq.2020.113538)

Experiment: xn = mol fraction of the nth substance listed
Conditions: 101 kPa

CC[n+]1ccn(CCOC)c1.O=S(=O)([O-])C(F)(F)F + CCO
viscosity [mPa·s]
Conditions	x1 = 0.0996	x1 = 0.1999	x1 = 0.2996	x1 = 0.3984	x1 = 0.4991	x1 = 0.603	x1 = 0.699	x1 = 0.797	x1 = 0.899	x1 = 1
288.15 K	2.654	4.54	–	12.13	19.22	28.7	43.6	62.8	84.4	121
293.15 K	2.374	4.01	6.66	10.37	16.43	23.77	–	–	–	92.5
298.15 K	2.139	–	5.84	8.96	13.98	19.98	29.12	–	52.2	72.5
303.15 K	–	–	5.16	7.82	11.97	17.28	24.38	32.04	42.9	–
308.15 K	1.757	2.916	4.59	6.88	10.34	–	20.67	–	–	47.3
313.15 K	1.603	2.644	4.11	6.09	9.01	12.4	17.99	–	28.85	39
318.15 K	1.467	2.409	3.72	5.43	7.9	11.16	15.6	–	23.82	32.59

CCO + CC[n+]1ccn(CCOC)c1.O=S(=O)([O-])C(F)(F)F
x2 = 0
Conditions	viscosity [mPa·s]
288.15 K	1.319
293.15 K	1.195
298.15 K	1.086
303.15 K	0.989
308.15 K	0.903
313.15 K	0.825
318.15 K	0.757
